# Reference: US20060234919A1, “Use” (priority 2001, published 2006)
# Legend:
# Assay type in all cases: in vivo, rat
# lipase = experiment: caerulein-induced pancreatitis, lipase activity in pancreatic tissue; conditions: 1 mg/ml s.c.; caerulein alone 4.87±0.72, control 0.24±0.26
# Protocol: Caerulein-induced pancreatitis: Female Sprague-Dawley rats (200-250 g) were anaesthetized with pentobarbitone sodium and phenobarbitone sodium (each 40 mg/kg, i.p.). The cholecystokinin analogue caerulein (8 nmol/kg in 2 h) was infused via one jugular vein for exocrine hyperstimulation and induction of acute edematous pancreatitis (Lampel M, Kern H F. Acute interstitial pancreatitis in the rat in-duced by excessive doses of a pancreatic secretagogue. Virchows Arch (Pathol Anat) 1997; 373: 97-117), while control animals were infused with a corresponding volume (4 ml/kg/h) of phosphate-buffered saline. Pre-treatment with the kininase II inhibitor captopril ([…], i. p.) was given 30 min prior to the infusion of caerulein. At the end of the experiment, the animals were sacrificed with an overdose of pentobarbital sodium. The pancreatic tissue was dried for 16 h in a vacuum centrifuge and the edema was quantified as fluid wt. per dry wt. of the tissue. For the determination of lipase activity in serum, the blood was collected following decapitation in separate groups of rats. The pancreas of these animals was excised an placed immediately into 2 ml of a 154 mmol/l solution of NaCl. After centrifugation at 2×10^5 m/s^2 for 25 min the supernatant was stored at −80° C. All samples were assayed for lipase activity (lipase test Boehringer Mannheim, Germany).
# myeloperoxidase = experiment: carrageenan induced myeloperoxidase accumulation in the hindpaw; conditions: 1000 μg/kg s.c.; 6 hours after treatment; saline controls 5.4±1.1; p<0.01
# Protocol: The rats were treated s.c. with oxytocin (1000 μg/kg) (n=6) or saline (n=6) immediately before the carrageenan injection. The accumulation of myeloperoxidase in the rat right hindpaw was measured 6 hours after the treatment with oxytocin or saline, and carrageenan. To determine the recruitment of neutrophils in response to the carrageenan induced inflammation in the rat hindpaw, the paws were weighed and homogenised in 10 ml 0.5% hexadecyltrimethyl-ammonium bromide (Sigma Chemical Co, USA), and freeze-thawed, whereafter the myeloperoxidase activity of the supernatant was assessed. The enzyme activity was determined spectrophotometrically as the change in absorbance at 650 nm (25° C.) occuring in the redox reaction of H2O2-tetramethylbenzidine (Sigma Chemical Co, USA) catalysed by myeloperoxidase. Values are expressed as myeloperoxidase units/g tissue. […] The myeloperoxidase concentration (i.e. the neutrophil recruitment) in the hindpaw was 3.5±0.72 units/g tissue in the oxytocin-treated rats compared to 5.4±1.1 units/g in the saline-treated controls (p<0.01) (FIG. 6).
# [1] = tested on: hydrochloric acid-induced cystitis; experiment: urinary frequency in rats with hydrochloric acid-induced cystitis
# From the text: Twenty Sprague-Dawley rats (body weight 220-250 g) were randomly divided into four equal groups: group 1, normal controls; group 2, a sham treatment (HCl-induced IC, with subsequent saline instillation); group 3, a sham treatment (HCl-induced IC, with subsequent acetic acid instillation); and group 4, stimulated (HCl-induced IC with oxytocin and acetic acid instillation). The IC animal model developed by Rivas et al. was used (Rivas D A, Chancellor M B, Shupp-Byme D, Shenot P J, McHugh K, McCue P. A molecular marker for the development of interstitial cystitis in a rat model: isoactin gene expression. J. Urol. 1997; 157: 1937-1940); IC was induced in groups 2-4 under general anaesthesia (using a combined subcutaneous injection with acepromazine 0.05 mg/kg, ketamine 50 mg/kg and xylazine 5 mg/kg). A sterile polyethylene catheter (outside diameter 1.27 mm; Becton Dickinson Company, Sparks, Md., USA) was inserted into the bladder through the urethra and all urine aspirated. […]
# The micturition pattern was measured both before and 3 weeks after intravesical HCl instillation, using a Grass 79 Polygraph (Grass Instruments Co., Quincy, Mass., USA). Rats were placed into a metabolic cage and micturition recorded automatically for […] (17.00-09.00 hours); all rats were assessed at the same time of the day to minimise the effect of the circadian cycle on micturition frequency and volume. […]
substance,measurement,setting,value
Oxytocin,active lipase in the pancreatic tissue,lipase,1.34±0.29 U/mg
same,myeloperoxidase concentration (neutrophil recruitment) in the hindpaw,myeloperoxidase,3.5±0.72 units/g tissue
same,micturition frequency,"[1]; group 4 (HCl-induced IC with oxytocin 1 mg/ml instillation) vs group 2+3, after 3 weeks, P=0.05",significantly less
same,urine volume per micturition,[1]; group 4 (oxytocin instillation) vs group 2+3,not significantly higher
